In brackets after ≈: the same amount, converted by molar mass. Activity calls are given as the source filed them. The calls are words filed in the database; no cut-off is given here.
Experiments:
[1] = Cytotoxicity against human HSF assessed as reduction in cell viability incubated for 72 hrs by MTT assay; type: toxicity, cell-based; details: HSF cells
[2] = Cytotoxicity against human CHL assessed as reduction in cell viability incubated for 72 hrs by MTT assay; type: toxicity, cell-based; details: CHL cells
Topoisomerase IV = Topoisomerase IV (Staphylococcus aureus, UniProt P0C1S7+P0C1U9); experiment: Inhibition of Staphylococcus aureus topoisomerase-IV assessed as reduction in decatenation using kinetoplast DNA as substrate incubated for 30 mins by ethidium bromide staining based agarose gel electrophoresis method; type: protein-complex assay
Bacillus subtilis = experiment: Antibacterial activity against Bacillus subtilis 168 assessed as reduction in microbial growth incubated for 24 hrs by broth microdilution method; type: functional
Escherichia coli [3] = experiment: Antibacterial activity against Escherichia coli ATCC 25922 assessed as reduction in microbial growth incubated for 24 hrs by broth microdilution method; type: functional
Staphylococcus aureus [4] = experiment: Antibacterial activity against methicillin sensitive Staphylococcus aureus ATCC 29213 assessed as reduction in microbial growth incubated for 24 hrs by broth microdilution method; type: functional
Pseudomonas aeruginosa [5] = experiment: Antibacterial activity against Pseudomonas aeruginosa ATCC 27853 assessed as reduction in microbial growth incubated for 24 hrs by broth microdilution method; type: functional
[6] = Cytotoxicity against human MSC assessed as reduction in cell viability incubated for 72 hrs by MTT assay; type: toxicity, cell-based; details: MSC cells
Salmonella typhimurium = experiment: Antibacterial activity against Salmonella typhimurium TA100 assessed as reduction in microbial growth incubated for 24 hrs by broth microdilution method; type: functional, Salmonella enterica subsp. enterica serovar Typhimurium; details: Salmonella enterica
Staphylococcus aureus [7] = experiment: In vivo antibacterial activity against Staphylococcus aureus N-10 infected in Po dosed SHK mouse model of sepsis assessed as survival measured after 14 days; type: functional; details: N-10, 336 h, time 14 day
[8] = tested on: Staphylococcus epidermidis; experiment: Antibacterial activity against clinical isolate Staphylococcus epidermidis assessed as reduction in microbial growth incubated for 24 hrs by broth microdilution method; type: functional
[9] = Toxicity in po dosed F1 C57Bl6 x CBA mouse assessed as lethal dose; type: organism-based; details: in vivo
DNA gyrase [10] = target: T1, DNA gyrase (Staphylococcus aureus, UniProt P0A0K8+P20831); experiment: Inhibition of Staphylococcus aureus DNA gyrase using relaxed pBR322 DNA as substrate incubated for 30 mins by ethidium bromide staining based agarose gel electrophoresis method; type: protein-complex assay
Enterococcus faecalis = experiment: Antibacterial activity against clinical isolate Enterococcus faecalis 1465 assessed as reduction in microbial growth incubated for 24 hrs by broth microdilution method; type: functional
Staphylococcus aureus [11] = experiment: Antibacterial activity against clinical isolate methicillin resistant Staphylococcus aureus 4771 assessed as reduction in microbial growth incubated for 24 hrs by broth microdilution method; type: functional
[12] = Genotoxicity in Salmonella typhimurium TA98 by Ames test; type: toxicity; details: salmonella enterica subsp. enterica serovar typhimurium
Klebsiella pneumoniae = experiment: Antibacterial activity against clinical isolate Klebsiella pneumoniae 1678 assessed as reduction in microbial growth incubated for 24 hrs by broth microdilution method; type: functional
Staphylococcus aureus [13] = experiment: Antibacterial activity against clinical isolate Staphylococcus aureus 4721 assessed as reduction in microbial growth incubated for 24 hrs by broth microdilution method; type: functional
[14] = tested on: Staphylococcus epidermidis; experiment: Antibacterial activity against clinical isolate Staphylococcus epidermidis NKC 37/1 assessed as reduction in microbial growth incubated for 24 hrs by broth microdilution method; type: functional
Escherichia coli [15] = experiment: Antibacterial activity against clinical isolate Escherichia coli NKC 1 assessed as reduction in microbial growth incubated for 24 hrs by broth microdilution method; type: functional
[16] = Genotoxicity in Salmonella typhimurium TA100 by Ames test; type: toxicity; details: salmonella enterica subsp. enterica serovar typhimurium
[17] = Toxicity in female rat assessed as mortality at 2000 mg/kg, po; type: organism-based; details: in vivo
[18] = Toxicity in male rat assessed as mortality at 2000 mg/kg, po; type: organism-based; details: in vivo
Staphylococcus aureus [19] = experiment: In vivo antibacterial activity against Staphylococcus aureus N-10 infected in SHK mouse model of sepsis assessed as animal death at 2 to 4 mg/kg, po measured after 5 to 14 days; type: functional, organism-based; details: dose 2-4 mg/kg, time 5-14 day
Cedecea davisae = experiment: Antibacterial activity against clinical isolate Cedecea davisae 1813 assessed as reduction in microbial growth incubated for 24 hrs by broth microdilution method; type: functional
[20] = tested on: Staphylococcus auricularis; experiment: Antibacterial activity against clinical isolate Staphylococcus auricularis NKC 7 assessed as reduction in microbial growth incubated for 24 hrs by broth microdilution method; type: functional
[21] = tested on: Staphylococcus haemolyticus; experiment: Antibacterial activity against clinical isolate Staphylococcus haemolyticus 1464 assessed as reduction in microbial growth incubated for 24 hrs by broth microdilution method; type: functional
[22] = tested on: Staphylococcus haemolyticus; experiment: Antibacterial activity against clinical isolate Staphylococcus haemolyticus NKC 31/2 assessed as reduction in microbial growth incubated for 24 hrs by broth microdilution method; type: functional
Micrococcus luteus = experiment: Antibacterial activity against clinical isolate Micrococcus luteus assessed as reduction in microbial growth incubated for 24 hrs by broth microdilution method; type: functional
[23] = Genotoxicity in Salmonella typhimurium TA102 by Ames test; type: toxicity; details: salmonella enterica subsp. enterica serovar typhimurium
Staphylococcus aureus [24] = experiment: Potency index ratio of ciprofloxacin ED50 to test compound ED50 for invivo antibacterial activity against Staphylococcus aureus N-10 infected in Po dosed SHK mouse model of sepsis; type: functional
[25] = Toxicity in po dosed rat assessed as lethal dose; type: organism-based; details: in vivo
DNA gyrase [26] = target: T1, DNA gyrase; experiment: Inhibition of Staphylococcus aureus DNA gyrase using supercoiled pBR322 DNA as substrate incubated for 60 mins by ethidium bromide staining based agarose gel electrophoresis method; type: protein-complex assay
Klebsiella aerogenes = experiment: Antibacterial activity against clinical isolate Enterobacter aerogenes NKC 8 assessed as reduction in microbial growth incubated for 24 hrs by broth microdilution method; type: functional
Staphylococcus aureus [27] = experiment: Antibacterial activity against clinical isolate Staphylococcus aureus 1812 assessed as reduction in microbial growth incubated for 24 hrs by broth microdilution method; type: functional
[28] = Toxicity in F1 C57Bl6 x CBA mouse assessed as mortality at 2000 mg/kg, po; type: organism-based; details: in vivo
Pseudomonas aeruginosa [29] = experiment: Antibacterial activity against clinical isolate Pseudomonas aeruginosa NKC 17 assessed as reduction in microbial growth incubated for 24 hrs by broth microdilution method; type: functional
Staphylococcus aureus [30] = experiment: In vivo antibacterial activity against Staphylococcus aureus N-10 infected in SHK mouse model of sepsis assessed as survival at 16 to 18 mg/kg, po measured after 14 days relative to control; type: functional, organism-based; details: dose 16-18 mg/kg, time 14.0 day
[31] = Toxicity in po dosed female F1 C57Bl6 x CBA mouse assessed as lethal dose; type: organism-based; details: in vivo
[32] = Toxicity in male F1 C57Bl6 x CBA mouse assessed as mortality at 125 mg/kg, po; type: organism-based; details: in vivo
[33] = Toxicity in male F1 C57Bl6 x CBA mouse assessed as mortality at 1000 to 2000 mg/kg, po; type: organism-based; details: in vivo, dose 1000-2000 mg/kg
[34] = Toxicity in F1 C57Bl6 x CBA mouse assessed as mortality at 1000 to 2000 mg/kg, po relative to control; type: organism-based; details: in vivo, dose 1000-2000 mg/kg
[35] = Toxicity in F1 C57Bl6 x CBA mouse assessed as kidney darkening at 125 mg/kg, po after 14 days; type: organism-based; details: in vivo, 336 h, time 14 day
[36] = Toxicity in F1 C57Bl6 x CBA mouse assessed as liver darkening at 125 mg/kg, po after 14 days; type: organism-based; details: in vivo, 336 h, time 14 day
[37] = Toxicity in rat assessed as kidney darkening at 2000 mg/kg, po after 14 days; type: organism-based; details: in vivo, 336 h, time 14 day
[38] = Toxicity in rat assessed as liver darkening at 2000 mg/kg, po after 14 days; type: organism-based; details: in vivo, 336 h, time 14 day
[39] = Toxicity in female F1 C57Bl6 x CBA mouse assessed as mortality at 125 mg/kg, po; type: organism-based; details: in vivo
[40] = Toxicity in female F1 C57Bl6 x CBA mouse assessed as mortality at 1000 mg/kg, po; type: organism-based; details: in vivo
[41] = Toxicity in po dosed male F1 C57Bl6 x CBA mouse assessed as lethal dose; type: organism-based; details: in vivo
[42] = Toxicity in F1 C57Bl6 x CBA mouse assessed as mortality at […] 125 to 500 mg/kg, po relative to control; type: organism-based; details: in vivo, at 125 to 500 mg/kg, dose 125-500 mg/kg

COc1c(N2C[C@@H]3CCCN[C@@H]3C2)c(F)cc2c(=O)c(C(=O)O)cn(C3CC3)c12 [MOXIFLOXACIN]
CC50 at 72 h [1]: 36.5 µg/mL (≈ 90.8 µM) | CC50 at 72 h [2]: 35 µg/mL (≈ 87.2 µM) | IC50 (Topoisomerase IV): 29.9 µM | MIC (Bacillus subtilis): 2 µg/mL | MIC (Escherichia coli [3]): 1 µg/mL | MIC (Staphylococcus aureus [4]): 0.5 µg/mL | MIC (Pseudomonas aeruginosa [5]): 4 µg/mL | CC50 at 72 h [6]: 39.4 µg/mL (≈ 98.2 µM) | MIC (Salmonella typhimurium): 1 µg/mL

Cc1ncc(CN2CCN(c3cc4c(cc3F)c(=O)c(C(=O)O)cn4C3CC3)CC2)c(CO)c1O.Cl
ED50 (Staphylococcus aureus [7]): 7.3 mg/kg | MIC [8]: 2 µg/mL | LD50 [9]: > 2000 mg/kg | CC50 at 72 h [1]: 34.5 µg/mL | IC50 (DNA gyrase [10]): 1460 µM | MIC (Enterococcus faecalis): 32 µg/mL | MIC (Staphylococcus aureus [11]): 1 µg/mL | Activity [12]: Non-Toxic | CC50 at 72 h [2]: 30.9 µg/mL | IC50 (Topoisomerase IV): 397 µM | MIC (Klebsiella pneumoniae): 8 µg/mL | MIC (Staphylococcus aureus [13]): 0.5 µg/mL | MIC [14]: 0.5 µg/mL | MIC (Escherichia coli [15]): 0.5 µg/mL | Activity [16]: Non-Toxic | Activity [17]: Non-Toxic | Activity [18]: Non-Toxic | MIC (Bacillus subtilis): 2 µg/mL | Activity (Staphylococcus aureus [19]): inactive | MIC (Escherichia coli [3]): 2 µg/mL | MIC (Cedecea davisae): 1 µg/mL | MIC [20]: 0.03 µg/mL | MIC (Staphylococcus aureus [4]): 2 µg/mL | MIC [21]: 1 µg/mL | MIC (Pseudomonas aeruginosa [5]): > 64 µg/mL | MIC [22]: 8 µg/mL | MIC (Micrococcus luteus): 4 µg/mL | Activity [23]: Non-Toxic | Ratio ED50 (Staphylococcus aureus [24]): 1.5 | LD50 [25]: > 2000 mg/kg | IC50 (DNA gyrase [26]): 59.7 µM | CC50 at 72 h [6]: 40.3 µg/mL | MIC (Klebsiella aerogenes): 2 µg/mL | MIC (Staphylococcus aureus [27]): 1 µg/mL | Activity [28]: Non-Toxic | MIC (Pseudomonas aeruginosa [29]): 16 µg/mL | Activity (Staphylococcus aureus [30]): Active | MIC (Salmonella typhimurium): 2 µg/mL

COc1c(N2C[C@@H]3CCCN(Cc4cnc(C)c(O)c4C)[C@@H]3C2)c(F)cc2c(=O)c(C(=O)O)cn(C3CC3)c12.Cl.Cl
MIC [8]: 0.5 µg/mL | CC50 at 72 h [1]: 17.6 µg/mL | IC50 (DNA gyrase [10]): 85.3 µM | MIC (Enterococcus faecalis): 4 µg/mL | LD50 [31]: 541 mg/kg | MIC (Staphylococcus aureus [11]): 0.06 µg/mL | Activity [12]: Non-Toxic | CC50 at 72 h [2]: 8.22 µg/mL | Activity [32]: Non-Toxic | IC50 (Topoisomerase IV): 26.2 µM | MIC (Klebsiella pneumoniae): 64 µg/mL | Activity [33]: Toxic | mortality [34]: > 80% | MIC (Staphylococcus aureus [13]): 0.06 µg/mL | MIC [14]: 0.06 µg/mL | MIC (Escherichia coli [15]): 2 µg/mL | Activity [16]: Non-Toxic | Activity [18]: Non-Toxic | MIC (Bacillus subtilis): 0.5 µg/mL | MIC (Escherichia coli [3]): 2 µg/mL | MIC (Cedecea davisae): 0.03 µg/mL | MIC [20]: 0.03 µg/mL | MIC (Staphylococcus aureus [4]): 0.5 µg/mL | Activity [35]: Non-Toxic | MIC [21]: 0.06 µg/mL | MIC (Pseudomonas aeruginosa [5]): 1 µg/mL | MIC [22]: 8 µg/mL | Activity [36]: Non-Toxic | Activity [37]: Toxic | Activity [38]: Toxic | MIC (Micrococcus luteus): 0.5 µg/mL | Activity [39]: Non-Toxic | Activity [23]: Non-Toxic | LD50 [25]: > 2000 mg/kg | Activity [40]: Toxic | IC50 (DNA gyrase [26]): > 656 µM | CC50 at 72 h [6]: 12.7 µg/mL | MIC (Klebsiella aerogenes): 16 µg/mL | MIC (Staphylococcus aureus [27]): 0.25 µg/mL | MIC (Pseudomonas aeruginosa [29]): 64 µg/mL | MIC (Salmonella typhimurium): 1 µg/mL | LD50 [41]: 406 mg/kg | mortality [42]: 0%

O=C(O)c1cn(C2CC2)c2cc(N3CCNCC3)c(F)cc2c1=O [CIPROFLOXACIN]
ED50 (Staphylococcus aureus [7]): 11.2 mg/kg | CC50 at 72 h [1]: 52.8 µg/mL (≈ 159 µM) | CC50 at 72 h [2]: 29.3 µg/mL (≈ 88.5 µM) | MIC (Bacillus subtilis): 0.5 µg/mL | MIC (Pseudomonas aeruginosa [5]): 1 µg/mL | CC50 at 72 h [6]: 41.6 µg/mL (≈ 126 µM) | MIC (Salmonella typhimurium): 1 µg/mL

Source: ChEMBL document CHEMBL5634112, “Synthesis and biological evaluation of fluoroquinolones containing a pyridoxine derivatives moiety” (Eur J Med Chem, 2023)
